Source: patent publication US20080076739A1, “Methods for treating arthritis using triheterocyclic compounds” (Gemin X Biotechnologies Inc., priority 2005, published 2008)
Counter-ions that a name gives are not always drawn. Like-named read-outs stand apart in the source and are kept apart here.

Assays:
[1] = Shelf stability (precipitation) of formulated compound; format: physicochemical; conditions: 72 hours after preparation; 0.6 mg/mL in 9.6% polyethylene glycol 300, 0.4% polysorbate 20 and 5% dextrose
Protocol: Compound 1 Tartrate salt solubility is equal to 0.1 mg/mL. […] This increase in solubility has a positive impact on the shelf stability of formulated Compound 1.

[2] = test system: human prostatic adenocarcinoma cancer PC3 cells; experiment: Growth of PC3 prostatic tumors in SCID mice; format: in vivo; conditions: 5 consecutive intravenous injections; Compound 1 Mesylate Salt 4.84 μMoles/Kg; Compound 66 4.84 or 14.51 μMoles/Kg (FIG. 6)
Protocol: The human prostatic adenocarcinoma cancer PC3 cells were purchased from the American Type Culture Collection (ATCC). These cells were confirmed to be free of mycoplasma infection. Cells were maintained in the Roswell Park Memorial Institute (RPMI), supplemented with 10% inactivated fetal bovine serum and 1% penicillin-streptomycin-L-Glutamine, under 5% carbon dioxide (CO2) at 37° C. For prostatic-tumor induction, cells were grown lower than 70% confluence in complete medium and then collected with trypsin (Bio Whittaker, Rockland, Me., USA). Cells were then centrifuged and washed 2 times in phosphate buffer solution (PBS) and resuspended in PBS at 1.5×10^6 cells/0.1 mL. PC3 cells were then transplanted subcutaneously into the flank of SCID mice (Charles River Laboratories, Wilmington, Mass., USA), as a suspension of tumor cells (1.5×10^6 cells in 100 μL PBS), under a laminar airflow hood. Eleven (11) days later, the size of each tumor was measured. […] Relative tumor size and volume was calculated as follows: length (cm)×[width (cm)]^2/2. […]

[3] = test system: C33A cervical carcinoma cells; experiment: Cell viability by cellular ATP levels (ViaLight), C33A; format: cell-based; conditions: Homo sapiens
Protocol: (§1) One day after plating, the cells were treated with various concentrations of Compound 1 Tartrate. Stock solutions of the Compound 1 Tartrate were prepared in dimethyl sulfoxide (Sigma-Aldrich Inc., St. Louis, Mo., USA), diluted in the recommended media and then added to the cells. The total dimethyl sulfoxide on the cells was 1%. […] The results were plotted relative to untreated control cells, which were set at a value of 100.
(§2) As depicted in Table 4, these compounds were efficient in decreasing cellular ATP levels in H1299 and C33A cancer cell lines. […], these compounds are believed to have utility in the in vivo methods of the invention, i.e., treatment and prevention of cancer and viral infections, respectively. It should be noted that, although this cell-based assay is believed to be indicative of anti-oncogenic activity in vivo, it is not the only useful assay for evaluating the anti-oncogenic activity of Triheterocyclic Compounds of the invention. In addition, the anti-viral and other biological activity of compounds of the invention can be determined and evaluated in other assay systems known to the skilled artisan.

[4] = test system: PC-3 human prostatic carcinoma cell line; experiment: Cell viability by cellular ATP levels (ViaLight), PC-3; format: cell-based; conditions: PC-3, Prostate, ATP levels 72 h post-treatment, read-out: IC50 of Compound 1 tartrate
Protocol: as §1

[5] = test system: OVCAR-3 human ovarian carcinoma cell line; experiment: Cell viability by cellular ATP levels (ViaLight), OVCAR-3; format: cell-based; conditions: OVCAR-3, Ovary, ATP levels 72 h post-treatment, read-out: IC50 of Compound 1 tartrate
Protocol: as §1

[6] = test system: H460 non-small cell lung cancer cell line; experiment: Cell viability by cellular ATP levels (ViaLight), H460; format: cell-based; conditions: Homo sapiens, NCI-H460; H460, NSCLC; ATP levels 72 h post-treatment; read-out: IC50 of Compound 1 tartrate
Protocol: as §1

[7] = test system: A549 human lung carcinoma cell line; experiment: Cell viability by cellular ATP levels (ViaLight), A549; format: cell-based; conditions: A549, NSCLC, ATP levels 72 h post-treatment, read-out: IC50 of Compound 1 tartrate
Protocol: as §1

[8] = test system: H1299 human non-small cell lung cancer cells; experiment: Cell viability by cellular ATP levels (ViaLight), H1299; format: cell-based
Protocol: as §1, §2

[9] = test system: ADR-RES human breast cancer cell line; experiment: Cell viability by cellular ATP levels (ViaLight), NCI/ADR-RES; format: cell-based; conditions: Breast (multi-drug resistant), ATP levels 72 h post-treatment, read-out: IC50 of Compound 1 tartrate
Protocol: as §1

[10] = test system: MCF-7 human breast cancer cell line; experiment: Cell viability by cellular ATP levels (ViaLight), MCF-7; format: cell-based; conditions: MCF7, MCF-7, Breast, ATP levels 72 h post-treatment, read-out: IC50 of Compound 1 tartrate
Protocol: as §1

[11] = test system: SW-480 human adenocarcinoma cell line; experiment: Cell viability by cellular ATP levels (ViaLight), SW-480; format: cell-based; conditions: SW480, SW-480, Colorectal, ATP levels 72 h post-treatment, read-out: IC50 of Compound 1 tartrate
Protocol: as §1

[12] = test system: B16-F1 mouse melanoma cell line; experiment: Cell viability by cellular ATP levels (ViaLight), B16-F1; format: cell-based; conditions: B16-F1, Murine Melanoma, ATP levels 72 h post-treatment, read-out: IC50 of Compound 1 tartrate
Protocol: as §1

[13] = test system: HMEC normal mammary epithelial cells; experiment: Cell viability by cellular ATP levels (ViaLight), HMEC; format: cell-based; conditions: Homo sapiens, Normal Breast, ATP levels 72 h post-treatment, read-out: IC50 of Compound 1 tartrate
Protocol: as §1

[14] = test system: cancer cell lines H1299 and C33A; normal cell lines HMEC and MRC-5; experiment: Cellular ATP levels, cancer cell lines compared with normal cell lines; format: cell-based
Protocol: as §1

[15] = test system: C33A human cervical cancer cells; experiment: Growth of C33A cervical tumors in SCID mice; format: in vivo, CB17 SCID/SCID mice; conditions: 4.5 mg/kg IV once a day for five days (FIG. 3)
Protocol: Viability was examined by staining with trypan blue (Gibco, NY, USA) and only flasks with cell viability greater than 95% were used for in vivo studies.
(§3) There were three treatment groups of ten mice each: (a) a negative control group, (b) a positive control group and (c) a group treated with Compound 1 Tartrate.
(§4) Treatments started on day fourteen after C33A cells transplantation. Compound 1 Tartrate was administered IV once daily for five consecutive days at a dose of 4.5 mg/kg. Compound 1 Tartrate was prepared fresh daily in a vehicle solution of 5% Dextrose (Abbot Laboratories, QC, Canada) and 2% polysorbate 20 (Sigma, St. Louis, Mo., USA). The negative control group was treated with vehicle alone. The injection volume for both Compound 1 Tartrate group and the negative control group was 150 μl.
(§5) Observation continued for 40 days after initial tumor implantation.

[16] = Solubility (filtration, LC/MS)
Protocol: To determine whether a compound is soluble in a solution, the solution was filtered on 0.2 μM polytetrafluoroethylene filters (Whatman Inc. Clifton, N.J., USA) and the compound concentration in the filtrate was measured by LC/MS and compared to the expected concentration.
The column used was XTerra MS C18: 50×2.1 mm, 3.5 mm column at 20° C. Samples were injected and separated under the following conditions: The mobile phase “A” consisted of 5 mM ammonium formate, 0.1% formic acid in water and mobile phase “B” consisted of 5 mM ammonium formate, 0.1% formic acid in methanol. […] The Mass Spectrometer system consisted of a Waters ZQ2000 single quadrupole mass spectrometer (Waters, Milford, Mass., USA) equipped with an Electrospray Ionization Source (ES). The mass detector was operated in positive ion mode (ES+) and Selected Ion Recording mode (SIR). Compounds were detected at m/z equal to their respective molecular weight plus 1.

[17] = molecular target: T1, human placental alkaline phosphatase (Homo sapiens, UniProt P05187); experiment: Conversion of phosphate pro-drug by human placental alkaline phosphatase; format: in vitro ADME; conditions: 15 μM, 0.02 U/100 μL enzyme, pH 7.4, up to 120 minutes (FIG. 4)
T1 construct: purchased Sigma-Aldrich Canada Ltd
T1 sequence (P05187 23-506): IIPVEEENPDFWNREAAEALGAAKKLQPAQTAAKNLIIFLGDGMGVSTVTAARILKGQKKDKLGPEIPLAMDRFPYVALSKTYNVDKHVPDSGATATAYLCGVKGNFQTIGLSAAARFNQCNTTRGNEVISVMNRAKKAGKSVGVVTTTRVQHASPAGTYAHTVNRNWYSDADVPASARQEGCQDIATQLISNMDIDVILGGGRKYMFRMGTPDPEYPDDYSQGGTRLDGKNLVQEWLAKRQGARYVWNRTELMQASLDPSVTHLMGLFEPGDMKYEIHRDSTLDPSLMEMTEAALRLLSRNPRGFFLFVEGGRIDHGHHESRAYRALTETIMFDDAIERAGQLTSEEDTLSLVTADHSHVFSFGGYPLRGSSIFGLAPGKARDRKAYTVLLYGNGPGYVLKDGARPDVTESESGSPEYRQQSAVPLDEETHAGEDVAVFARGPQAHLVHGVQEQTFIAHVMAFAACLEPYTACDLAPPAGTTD
Protocol: (§6) The conversion into biologically active drug of phosphate pro-drugs by calf intestinal alkaline phosphatase and human placental alkaline phosphatase was measured in vitro using purified enzymes. Purified calf intestinal alkaline phosphatase (Roche Diagnostic Inc. Laval, Quebec, Canada) or human placental alkaline phosphatase (Sigma-Aldrich Canada Ltd. Oakville, Ontario, Canada) was added at a concentration of 0.02 U/100 μL to a solution containing 15 μM of Compound 66, 20 mM Tris-HCl, pH 7.4 and 0.9% NaCl. The solutions were incubated for 30, 60 or 120 minutes. A solution containing 15 μM of Compound 66, 20 mM Tris-HCl, pH 7.4 and 0.9% NaCl was used as a reference (time=0 minutes). To each solution, an equal volume (100 μL) of ice-cold acetonitrile was added, and then the mixture was vortexed and transferred to glass vials. A standard concentration curve of the pro-drug and the drug was prepared in 10 mM Tris-HCl, pH 7.4, 0.45% NaCl and 50% acetonitrile. All samples were immediately analyzed by LC/MS.

[18] = molecular target: T2, calf intestinal alkaline phosphatase (Bos taurus, UniProt P19111); experiment: Conversion of phosphate pro-drug by calf intestinal alkaline phosphatase; format: in vitro ADME; conditions: 15 μM, 0.02 U/100 μL enzyme, pH 7.4, up to 120 minutes (FIG. 5)
T2 construct: purchased Roche Diagnostic Inc
T2 sequence (P19111 20-506): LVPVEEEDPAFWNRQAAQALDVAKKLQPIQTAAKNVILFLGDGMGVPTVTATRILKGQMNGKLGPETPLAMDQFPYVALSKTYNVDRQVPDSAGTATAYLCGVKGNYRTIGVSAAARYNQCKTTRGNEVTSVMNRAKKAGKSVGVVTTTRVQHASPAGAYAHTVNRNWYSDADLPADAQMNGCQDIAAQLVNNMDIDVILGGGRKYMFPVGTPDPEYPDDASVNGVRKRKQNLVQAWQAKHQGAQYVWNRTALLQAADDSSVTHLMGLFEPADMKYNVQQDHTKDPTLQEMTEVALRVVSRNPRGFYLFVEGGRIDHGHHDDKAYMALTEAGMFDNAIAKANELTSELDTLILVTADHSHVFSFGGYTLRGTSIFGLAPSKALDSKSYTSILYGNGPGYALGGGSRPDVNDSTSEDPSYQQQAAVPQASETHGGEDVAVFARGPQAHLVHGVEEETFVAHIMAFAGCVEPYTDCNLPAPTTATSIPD
Protocol: as §6

[19] = Body weight and deaths of SCID mice bearing C33A tumors; format: in vivo, CB17 SCID/SCID mice; conditions: cisplatin 4 mg/kg IP; days 29 and 32, group of ten mice
Protocol: as §3, §4, §5

[20] = C-33-A, C33A, cellular ATP levels as in Example 2, read-out: IC50 (μM) C33A, Effect on Cancer Cells Viability
[21] = NCI-H1299, H1299, cellular ATP levels as in Example 2, read-out: IC50 (μM) H1299, Effect on Cancer Cells Viability
[22] = C-33-A, read-out: IC50 (μM) C33A, Effect on Cancer Cells Viability
[23] = NCI-H1299, read-out: IC50 (μM) H1299, Effect on Cancer Cells Viability

## COC1=CC(c2cc3ccccc3[nH]2)=N/C1=C\c1[nH]c(C)cc1C [Compound 1 Mesylate Salt]
[1]
  Precipitation of the formulation: no evidence of precipitation
[2]
  Growth of prostatic tumors in mice: significantly reduce the growth of prostatic tumors

## COC1=CC(c2cc3ccccc3[nH]2)=N/C1=C\c1[nH]c(C)cc1C [Compound 1 tartrate]
[3]; C-33A, Cervix, ATP levels 72 h post-treatment compared to untreated cells, read-out: IC50 of Compound 1 tartrate
  IC50: 0.2 µM
[4]
  IC50: 200 nM
[5]
  IC50: 200 nM
[6]
  IC50: 300 nM
[7]
  IC50: 400 nM
[8]; NCI-H1299, H1299, NSCLC, ATP levels 72 h post-treatment, read-out: IC50 of Compound 1 tartrate
  IC50: 0.5 µM
[9]
  IC50: 400 nM
[10]
  IC50: 600 nM
[11]
  IC50: 200 nM
[12]
  IC50: 60 nM
[13]
  IC50: 4000 nM
[14]; 0.5 μM, 72 hours after treatment (FIG. 1)
  Lowering of ATP levels in cancer cell lines H1299 and C33A compared with normal cell lines HMEC and MRC-5: significantly more effective at lowering ATP levels
[14]; various concentrations, ten cancer cell lines versus HMEC normal mammary epithelial cell line
  Efficacy in decreasing cellular ATP levels, cancer cell lines versus HMEC: greater efficacy in decreasing cellular ATP levels in the cancer cell lines
[15]
  Reduction in tumor growth compared to vehicle: statistically significant (p<0.0001) reduction in tumor growth

## COC1=CC(c2cc3ccccc3[nH]2)=N/C1=C\c1[nH]c(C)cc1C [Compound 1]
[16]; water
  Solubility in water (in words): poorly soluble in water

## COC1=CC(c2cc3ccccc3n2C(=O)Nc2ccc(N(C)C)cc2)=N/C1=C/c1[nH]c(C)cc1C [Compound 52]
[3]; [20]
  IC50: 1.11 µM
[8]; [21]
  IC50: 1.04 µM

## CCOC(=O)COC1=CC(c2cc3ccccc3[nH]2)=N/C1=C\c1[nH]c(C)cc1C [Compound 53]
[3]; [22]
  IC50: 10.2 µM
[8]; [23]
  IC50: 10.6 µM

## COc1ccc(NC2=CC(c3cc4ccccc4[nH]3)=N/C2=C\c2[nH]c(C)cc2C)cc1 [Compound 61]
[3]; [20]
  IC50: 0.93 µM
[8]; [21]
  IC50: 1.11 µM

## COC(=O)CCc1c(C)[nH]c(/C=C2/N=C(c3cc4ccccc4[nH]3)C=C2OC)c1C [Compound 63]
[3]; [22]
  IC50: 0.548 µM
[8]; [23]
  IC50: 0.753 µM

## COC1=CC(c2cc3ccccc3n2C(=O)CC(C)(C)c2c(C)cccc2OP(=O)(O)O)=N/C1=C/c1[nH]c(C)cc1C [Compound 66]
[17]
  Conversion of pro-drug into Compound 1: convert a fraction of the pro-drug
[18]
  Conversion of pro-drug into Compound 1: convert a fraction of the pro-drug
[2]
  Growth of prostatic tumors in mice: significantly reduce the growth of prostatic tumors
[16]
  Solubility, fold greater than Compound 1 Tartrate: 100 fold

## N.N.[Cl][Pt][Cl] [cisplatin]
[19]
  Deaths: Two mice died
